Reference: patent US20100144737A1, “METHODS FOR INHIBITING T HELPER CELL DIFFERENTIATION” (FibroGen, Inc., priority 2008, published 2010)

Experiments:
[1] = system: activated T cells (PMBCs); experiment: IFN-γ and TNF-α levels ex vivo following T cell activation in vivo (peptidoglycan-polysaccharide polymer injection); set-up: species or system Lewis rats; settings: 40 mg/kg oral gavage, days 28-44; PMBCs isolated day 44, anti-CD3, 72 h, ELISA
Procedure: The effect of methods and compounds of the present invention on INF-γ and TNF-α expression following in vivo activation was examined as follows. In these experiments, in vivo T cell activation was first induced by eliciting an inflammatory reaction in rats by injection of peptidoglycan-polysaccharide polymers. An exemplary compound of the present invention was then administered to the animals. T cells were then isolated from the blood of the animals and analyzed ex vivo for IFN-γ and TNF-α secretion. Female Lewis rats (150-200 gm; Harlan, Indianapolis, Ind.) were injected intra-peritoneal with peptidoglycan-polysaccharide polymers (15 μg/gm body weight, Lee Laboratories, Grayson, Ga.). Animals were administered Compound A (40 mg/kg) via oral gavage on days 28, 30, 32, 35, 37, 39, 42, and 44 following peptidoglycan-polysaccharide polymer injection. Peripheral blood mononuclear cells (PMBCs) were isolated from the blood of the animals by Ficol gradient (BD Vacutainer CPT tubes) on day 44. Equal numbers of PMBCs (50,000 cells/well) were plated on culture dishes coated with anti-CD3 antibodies in RPMI-1640 media containing 10% serum, and the cells were cultured for 72 h. Supernatants from the cell cultures were tested for IFN-γ and TNF-α levels using commercially-available ELISA assays (R&D).

naïve T helper cells = experiment: T helper cell number and viability (Guava ViaCount); format: cell-based, human; settings: day 7
Procedure: To examine the effect of compounds and methods of the present invention on T helper cell number and viability, the following studies were performed. Human cord blood naive T helper cells (AllCells LLC, Emeryville, Calif.) were stimulated (i.e., T cell receptor (TCR) stimulation) by seeding into 96-well culture dishes coated with 5 μg/ml anti-CD3 antibody (clone UCHT1, R&D Systems, Minneapolis, Minn.), and 5 μg/ml anti-CD28 antibody (clone ANC28.1/D10, Ancell Corporation, Bayport, Minn.), and cultured at 37° C, 5% CO2 in RPMI-1640 (Mediatech Inc., Herndon, Va.) containing 1% FBS, 1 U/ml penicillin-1 μg/ml streptomycin (invitrogen Corporation, Carlsbad, Calif.), and 50 U/ml IL-2 (Roche Diagnostics Corporation, Indianapolis, Ind.). […] The T helper cells were then collected and cell number and cell viability were analyzed using Guava ViaCount reagents and the Guava PCA System (Guava Technologies, Hayward, Calif.).
In another set of experiments, the effect of compounds and methods of the present invention on T helper cell number and viability was determined. […] The T helper cells were then collected and cell number and cell viability were analyzed using Guava ViaCount reagents and the Guava PCA System (Guava Technologies, Hayward, Calif.).

Naive T helper cells = experiment: Secretion of pro-inflammatory cytokines (IFN-γ, TNF-α) from TCR-stimulated T helper cells, conditioned media; format: cell-based, human; settings: seven days
Procedure: The effect of methods and compounds of the present invention on T helper cell secretion of pro-inflammatory cytokines was evaluated as follows. Naive T helper cells (AllCells LLC, Emeryville, Calif.) obtained from human cord blood were stimulated (i.e., T cell receptor (TCR) stimulation) by seeding into 96-well culture dishes coated with 5 μg/ml anti-CD3 antibody (clone UCHT1, R&D Systems, Minneapolis, Minn.) (Tanaka et.al. (1989) J Immunol 142:2791-2795.), and 5 μg/ml anti-CD28 antibody (clone ANC28.1/D10, Ancell Corporation, Bayport, Minn.), and cultured at 37° C., 5% CO2 in RPMI-1640 (Mediatech Inc., Herndon, Va.) containing 1% FBS, 1 U/ml penicillin-1 μg/ml streptomycin (Invitrogen Corporation, Carlsbad, Calif.), and 50 U/ml IL-2 (Roche Diagnostics Corporation, Indianapolis, Ind.). At the time of seeding, cells were cultured with media alone or with media containing 2 ng/ml IL-12 (R&D Systems, Minneapolis, Minn.) (to stimulate differentiation of the T helper cells into Th1 cells) and 10 μg/ml anti-IL4 antibody (R&D Systems, Minneapolis, Minn.) (to block differentiation of the T helper cells into Th2 cells). Compound A or 1% DMSO (Veh) was added to the existing media and the cells were cultured for an additional seven days. The conditioned media was then collected from the cell cultures and analyzed for interferon-gamma (IFN-γ) and tumor necrosis factor-alpha (TNF-α) levels using MS2400 Human Tissue Culture Cytokine Detection Kits (MesoScale Technologies, Gaithersburg, Md.) according to the manufacturer's instructions. In another series of experiments, the effect of methods and compounds of the present invention on T helper cell secretion of pro-inflammatory cytokines was evaluated as follows. Naive T helper cells were stimulated substantially as described above with the following modification: cell cultures contained 100 U/ml penicillin-100 U/ml streptomycin. Various compounds of the present invention or 1% DMSO (Veh) was added to the existing media and the cells were cultured for an additional six days. Following stimulation with IL-12, conditioned media was then collected from the cell cultures and analyzed for interferon-gamma (IFN-γ) levels using MS2400 Human Tissue Culture Cytokine Detection Kits (MesoScale Technologies, Gaithersburg, Md.) according to the manufacturer's instructions.

[2] = TCR-stimulated T helper cells with 2 ng/ml IL-12 and anti-IL4 antibody, vs IL-12 and vehicle
[3] = TCR-stimulated T helper cells, without IL-12 addition, vs vehicle

## Cc1nc(C(=O)NCC(=O)O)c(O)c2ccc(Oc3ccccc3)cc12 [Compound A, [(4-Hydroxy-1-methyl-7-phenoxy-isoquinoline-3-carbonyl)-amino]-acetic acid]
[1]
  IFN-γ secretion from the activated T cells, measured ex vivo: effective at decreasing
  TNF-α secretion from the activated T cells, measured ex vivo: effective at decreasing
naïve T helper cells
  percent of viable T helper cells: did not decrease
  total number of viable T helper cells: did not decrease
Naive T helper cells; [2]
  IL-12-induced increase in IFN-γ levels: inhibited the increase
  IL-12-induced increase in TNF-α levels: inhibited the increase
Naive T helper cells; [3]
  IFN-γ levels in the conditioned media: reduction
  TNF-α levels in the conditioned media: reduction
